# The source made the active and inactive calls.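 The calls were made as follows: active = IC50 at or below 20 µM in the dose response; inactive = the rest.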
# Test system: HL-1 cardiomyocytes, H2O2 protection, ATPLite, 2 h
# Test: HL-1 cardiomyocyte survival under H2O2 injury – cell-based, hydrogen peroxide, ATP luminescence, SAR follow-up (AID 623872)
row,SMILES,IC50
1,COc1ccc(-c2cc(C(=O)NCc3ccccc3)c3ccccc3n2)cc1OC,> 79 µM (inactive)
2,COc1ccc(-n2cc(-c3ccccc3)c3c(N4CCCC4)ncnc32)cc1,> 79 µM (inactive)
3,COc1ccc2c(c1OC)C(=O)N1c3ccccc3C(=O)N(c3ccccc3C)C21 (stereo not given),> 79 µM (inactive)
4,COCCn1c(SC(C(=O)Nc2cc(C)ccc2C)c2ccccc2)nc2ccccc2c1=O (stereo not given),> 79 µM (inactive)
5,CCCN(CC(=O)Nc1ccccc1OC)C(=O)c1cc(-c2cccs2)nn1-c1ccccc1,> 79 µM (inactive)
6,NC(=O)c1nsc(C(=O)N(c2cccc(F)c2)C(C(=O)NC2CCCC2)c2ccc(O)cc2)c1N (stereo not given),> 79 µM (inactive)
7,O=C(C(=O)N1CCCC1)c1c(-c2ccccc2)[nH]c2ccccc12,> 79 µM (inactive)
8,Cc1ccc2cc(CN(C)S(=O)(=O)c3ccc(F)cc3)c(=O)[nH]c2c1,> 79 µM (inactive)
9,COc1ccc2cc(C(=O)N3CCN(S(=O)(=O)c4cc(C)ccc4C)CC3)c(C)nc2c1,> 79 µM (inactive)
10,COCCNC(=O)C(c1ccc(O)cc1)N(C(=O)c1snc(C(N)=O)c1N)c1ccccc1F (stereo not given),> 79 µM (inactive)
11,COc1ccc(-c2cc(C(=O)N(C)C)c3ccccc3n2)cc1OC,> 79 µM (inactive)
12,COc1cccc(NC(=O)CN(C)C(=O)c2cc(-c3cccs3)nn2-c2ccccc2)c1,> 79 µM (inactive)
13,O=C(C(=O)N1CCCCC1)c1c(-c2ccccc2)[nH]c2ccccc12,> 79 µM (inactive)
14,NC(=O)c1nsc(C(=O)N(Cc2ccccc2)C(C(=O)NCc2ccc(F)cc2)c2ccc(O)cc2)c1N (stereo not given),> 79 µM (inactive)
15,Cc1ccc2cc(CN(Cc3cccnc3)S(=O)(=O)c3ccc(F)cc3)c(=O)[nH]c2c1,> 79 µM (inactive)
16,Cc1ccc(C)c(S(=O)(=O)N2CCN(C(=O)c3cc4cc(C)ccc4nc3C)CC2)c1,> 79 µM (inactive)
17,CCCn1c(SC(C(=O)Nc2cccc(OC)c2)c2ccccc2)nc2ccccc2c1=O (stereo not given),> 79 µM (inactive)
18,COc1ccc(-c2cc(C(=O)Nc3ccccc3)c3ccccc3n2)cc1OC,> 79 µM (inactive)
19,COc1cccc(NC(=O)C(Sc2nc3ccccc3c(=O)n2CC(C)C)c2ccccc2)c1 (stereo not given),> 79 µM (inactive)
20,COc1ccc(-n2cc(-c3ccccc3)c3c(N4CCCCC4)ncnc32)cc1,> 79 µM (inactive)
21,CCN(CC(=O)Nc1ccc(OC)cc1)C(=O)c1cc(-c2cccs2)nn1-c1ccccc1,> 79 µM (inactive)
22,COc1cccc(CN(C)C(=O)c2cc(-c3ccc(OC)c(OC)c3)nc3ccccc23)c1,> 79 µM (inactive)
23,COc1ccc(S(=O)(=O)N(Cc2cccnc2)Cc2cc3ccccc3[nH]c2=O)cc1,> 79 µM (inactive)

row,SMILES,IC50
1,COc1ccc2c(=O)c(C(=O)N3CCN(S(=O)(=O)c4c(C)cc(C)cc4C)CC3)c[nH]c2c1,> 79 µM (inactive)
2,COc1ccc(-n2cc(-c3ccccc3)c3c(NCc4ccccc4)ncnc32)cc1,> 79 µM (inactive)
3,O=c1[nH]c2ccccc2cc1CN(Cc1ccco1)S(=O)(=O)c1ccc(F)cc1,> 79 µM (inactive)
4,CC(C)CCNC(=O)C(c1ccc(O)cc1)N(C(=O)c1snc(C(N)=O)c1N)c1ccccc1F (stereo not given),> 79 µM (inactive)
5,COc1ccc2cc(C(=O)N3CCN(S(=O)(=O)c4ccc(C)cc4C)CC3)c(C)nc2c1,> 79 µM (inactive)
6,Cc1ccc(NC(=O)CN(C)C(=O)c2cc(-c3cccs3)nn2-c2ccccc2)cc1,> 79 µM (inactive)
7,COc1ccc(N2C(=O)c3ccccc3N3C(=O)c4c(ccc(OC)c4OC)C23)cc1 (stereo not given),> 79 µM (inactive)
8,COc1ccccc1N1C(=O)c2ccccc2N2C(=O)c3c(ccc(OC)c3OC)C12 (stereo not given),77.1 µM (inactive)
9,COc1ccc(-c2cc(C(=O)NCc3ccco3)c3ccccc3n2)cc1OC,> 79 µM (inactive)
10,CCN(CC)S(=O)(=O)c1cc(C(=O)N2CCN(Cc3cccc4cccnc34)CC2)ccc1C,> 79 µM (inactive)
11,COc1ccc2c(c1OC)C(=O)N1c3ccccc3C(=O)N(c3cccc(Br)c3)C21 (stereo not given),1.89 µM
12,O=C1c2ccccc2N2C(=O)c3ccccc3[C@H]2N1c1ccccc1,> 79 µM (inactive)
13,Cc1ccc(S(=O)(=O)N(Cc2cccnc2)Cc2cc3ccccc3[nH]c2=O)cc1,> 79 µM (inactive)
14,COc1cccc(CN(C)C(=O)c2cc(-c3ccccc3)nc3ccc(C)cc23)c1OC,> 79 µM (inactive)
15,COc1cc(-c2cc(C(=O)Nc3cccc(C(C)=O)c3)c3ccccc3n2)cc(OC)c1OC,2.08 µM
16,Cc1ccccc1N(C(=O)c1snc(C(N)=O)c1N)C(C(=O)NCc1ccc(F)cc1)c1ccc(O)cc1 (stereo not given),> 79 µM (inactive)
17,Cc1ccc(S(=O)(=O)N2CCN(C(=O)c3cc(=O)[nH]c4ccccc34)CC2)cc1C,> 79 µM (inactive)
18,Cc1ccc(-c2[nH]c3ccccc3c2C(=O)C(=O)N(C)C)cc1,> 79 µM (inactive)
19,COc1ccc2c(c1OC)C(=O)N1c3ccccc3C(=O)N(c3ccc(F)cc3)C21 (stereo not given),35.6 µM (inactive)
20,CCN(CC)C(=O)C(=O)c1c(-c2ccccc2)[nH]c2ccccc12,> 79 µM (inactive)
21,COc1ccc(NC(=O)CN(C)C(=O)c2cc(-c3cccs3)nn2-c2ccccc2)cc1,> 79 µM (inactive)
22,COc1ccc(-c2cc(C(=O)N(C)Cc3ccc(OC)c(OC)c3OC)c3ccccc3n2)cc1OC,> 79 µM (inactive)

# — PubChem BioAssay AID623872 (Sanford-Burnham Center for Chemical Genomics, 2012)
